The values below come from publication PMC3953482, “Fha Interaction with Phosphothreonine of TssL Activates Type VI Secretion in Agrobacterium tumefaciens” (PLoS Pathogens, 2014).

One assay deals with Fha7-267^WT. The assay is described as follows: Isothermal titration calorimetry (ITC) of TssL/CHK2 peptides with Fha7-267^WT. Type of assay: binding, A. tumefaciens. To be noted: 25°C, 50 mM Tris-HCl (pH 8.0), 150 mM NaCl, 200 µM protein in cell, 6 mM peptide in syringe, result in words. The text has this: Because FHA domains are well known to bind to pThr residues specifically [33]–[35], we hypothesized that Fha specifically binds Thr 14-phosphorylated TssL to activate type VI secretion. To test this hypothesis, we first performed isothermal titration calorimetry (ITC) analysis with purified Fha proteins and synthetic phosphorylated- and unphosphorylated TssL N-terminal peptides. Because of the instability of full-length Fha protein purified from E. coli (data not shown), we purified truncated Fha proteins with different lengths for the ITC experiments (Figure S6A). […] The binding affinity was ∼3-fold higher (Kd 0.54±0.07 mM) with a longer phosphorylated TssL peptide (DNPSSWQDLPpTVVEITEESR, p-TssL^20 mer) (Figure 6B). […] (Figure 6C, 6E).
Figure 6 Phosphorylated TssL is a direct binding partner of Fha. Isothermal titration calorimetry (ITC) of specific binding between Fha and TssL peptides. […]
ITC analysis was used to determine the binding affinity and stoichiometry between Fha and TssL T-14 peptide with use of the MicroCal iTC200 system (GE Healthcare) and analyzed with ORIGIN software. […] The titration heat was calculated to eliminate the effect of heat generated from titrating the ligand into buffer. […]

The target of the next assay is Fha7-309^WT. The assay is described as follows: Isothermal titration calorimetry (ITC) of TssL peptides with Fha7-309^WT. It is filed as binding, A. tumefaciens. The following applies: 25°C, 50 mM Tris-HCl (pH 8.0), 150 mM NaCl, 200 µM protein in cell, 6 mM peptide in syringe, result in words. As for the experimental part:
ITC analysis was used to determine the binding affinity and stoichiometry between Fha and TssL T-14 peptide with use of the MicroCal iTC200 system (GE Healthcare) and analyzed with ORIGIN software. Truncated His-tagged Fha^7–267 and Fha^7–309 proteins were overexpressed and purified from E. coli BL21(DE3) as described. The proteins and various synthetic peptides were dissolved in buffer containing 50 mM Tris-HCl (pH 8.0), 150 mM NaCl. Synthetic phosphorylated TssL (DLPpTVVEI, p-TssL^8 mer; DNPSSWQDLPpTVVEITEESR, p-TssL^20 mer), unphosphorylated TssL (DLPTVVEI, TssL^8 mer), and phosphorylated CHK2 (VSpTQEL, p-CHK2^6 mer) peptides, were used to titrate the various Fha^7–267 or Fha^7–309 proteins at 25°C with a total 25 times of injections with 200 µM protein in the sample cell and 6 mM peptide in the injection syringe. The titration heat was calculated to eliminate the effect of heat generated from titrating the ligand into buffer. […]
Supplementary file ppat.1003991.s006.tif: Figure S6 SDS-PAGE analysis of purified Fha proteins and isothermal titration calorimetry (ITC) analysis. […] Five µg of purified Fha proteins (Fha7-267^WT, Fha7-267^R30AS46A, Fha7-309^WT) was analyzed by 12% SDS-PAGE and stained by Coomassie blue to ensure protein purity. […]

Assay [1] has as its target Fha7-267^WT (truncated His-tagged Fha with the intact FHA domain) (Agrobacterium tumefaciens C58). The assay is described as follows: ITC; MicroCal iTC200; 200 µM Fha protein in the sample cell, 6 mM peptide in the injection syringe, 25 injections, 25°C, 50 mM Tris-HCl (pH 8.0), 150 mM NaCl; One Set of Sites model with the N value fixed at 1. (In ITC the heat of successive injections is recorded.)

The target in assay [2] is Fha7-309^WT (longer version of the truncated Fha protein) (Agrobacterium tumefaciens C58). Described as above.

“Also recorded” adds a separate entry of the source. Non-standard residues stand in square brackets, D forms with d. No end group written: not given here. pT = C[C@@H](OP(=O)(O)O)[C@H](N)C(=O)O

In the case of “DLPTVVEI [TssL^8 mer, synthetic unphosphorylated TssL peptide (DLPTVVEI)]”, the “equilibrium dissociation constant (Kd), binding not detectable” value at Fha7-267^WT is recorded as “could not detect the binding affinity; also recorded: Undetectable”. Further, the “binding affinity, not detectable” value on Fha7-309^WT is “undetectable”.

In the case of “VSpTQEL [p-CHK2^6 mer, 6 mer phosphorylated CHK2 peptide (VSpTQEL), control, reference compound]”, the “equilibrium dissociation constant (Kd), binding not detectable” value at Fha7-267^WT is on record as “could not detect the binding affinity; also recorded: Undetectable”.

By Kd is commonly meant the free concentration of one partner at which half of the binding sites on the other are occupied at equilibrium, for simple one-to-one binding. Low values mean a tighter complex, high ones a looser complex. With DLP[pT]VVEI [8 mer phosphorylated TssL peptide (DLPpTVVEI)], the Kd came out at 1580 µM in assay [1] and 2150 µM in assay [2].

Molecule DNPSSWQDLP[pT]VVEITEESR [20 mer phosphorylated TssL peptide (…p…)] registered a Kd in assay [1] of 540 µM.
